Assay results taken from patent publication US20020025940A1, “Methods and compositions for sensitive and rapid, functional identification of genomic polynucleotides and use for cellular assays in drug discovery” (Aurora Biosciences Corporation, priority 1997, published 2002).

Columns and labels:
Type in all cases: cell-based, human
[1] = tested on: induced BLEC Jurkat clones; experiment: Characterization of induced BLEC Jurkat clones, change in 460/530 ratio; settings: PHA 10 microgram/ml, Thaps 1 microM, PMA 8 nM, Anti-CD3 2 microgram/ml
From the text: These clones represent cells in which the trapping construct had integrated into a gene up regulated by PHA (T-cell) activation. Thus, these cells report the transcriptional activation of a gene upon cellular activation. Individual clones were identified and isolated by FACS using CCF2/AM to detect beta-lactamase activity. This clone isolation method, the induced sorting paradigm, used three sequential and independent stimulation and sorting protocols. […] These control cells were all green.
These isolated clones were expanded and tested for PHA inducibility by microscopic inspection with and without PHA stimulation in the presence of CCF2/AM. A total of fifty-five PHA inducible clones were identified using this procedure. The PHA inducibility for these clones ranged from a 1.5 to 40 fold change in the 460/530 ratio as compared to unstimulated control cells. Genomic Southern analysis using a DNA probe encoding beta-lactamase established that these clones represented 34 independent stable vector integration events. A list of clones obtained by the methods of the present invention and their characteristics is provided below in Table 6 and Table 7.
In addition to PHA inducible clones, Phobol 12-myristate 13-acetate (PMA) (Calbiochem), Thapsigargin (Thaps) (Calbiochem), and PMA+Thaps inducible clones were isolated using the general procedure set forth above using the indicated inducer rather than PHA. PMA is a specific activator of PKC (protein kinase C) and Thaps is a specific activator of intracellular calcium ion release (Thaps). These clones were isolated using three rounds of FACS using the general procedures described for the PHA inducible clones in Example 5. In such instances, other stimulants were substituted for PHA. PMA was provided at 8 nM, Thaps was provided at 1 microM. When these two stimulants were combined, their concentration was not changed. […] By using varied selection conditions, it is possible to isolate functionally distinct clones downstream of the desired signaling target.
Table 7 and Table 8 provide data similar to that provided in Table 5 for all of the clones obtained by the methods of Examples 5 to 7.

BLEC Jurkat clones = experiment: Specificity of activated BLEC Jurkat clones, relative beta-lactamase activity; settings: PMA 8 nM, Thaps 1 microM, CsA 100 nM, PHA 10 microgram/ml
From the text: (§1) Isolated clones from PHA-induced (Example 6) and PHA-repressed (Example 7) procedures described above were characterized to determine the specificity of their modulation and time required for induction or repression. Clones were stimulated with multiple activators or inhibitors over a one to twenty-four hour time interval.
(§2) In this study, PMA, which is a PKC activator, Thapsigargin which increases intracellular calcium, PHA which activates the T-cell receptor pathway, and cyclosporin A which is a clinically approved immunosuppressant that inhibits the Ca^2+ dependent phosphates calcineurin were investigated for their ability to modulate beta-lactamase expression in PHA induced and repressed BLEC clones.

[2] = tested on: clone C2 (3×NFAT response element linked to beta-lactamase, M1 muscurinic receptor); experiment: Relative beta-lactamase activity of control clone C2; settings: PMA 8 nM, Thaps 1 microM, CsA 100 nM, PHA 10 microgram/ml
From the text: as §1, §2

CCCCCCCCCCCCCC(=O)O[C@@H]1[C@@H](C)[C@@]2(O)[C@@H](C=C(CO)C[C@]3(O)C(=O)C(C)=C[C@@H]23)[C@@H]2C(C)(C)[C@]12OC(C)=O [PMA, Phobol 12-myristate 13-acetate]
Change in 460/530 ratio in the indicated clone by the following activator ([1]; clone J83PI1): 3-4
Change in 460/530 ratio in the indicated clone by the following activator ([1]; clone J83PI2): 7-8
Change in 460/530 ratio in the indicated clone by the following activator ([1]; clone J83PI3): 3-4
Change in 460/530 ratio in the indicated clone by the following activator ([1]; clone J83PI4): 0
Change in 460/530 ratio in the indicated clone by the following activator ([1]; clone J83PI6): 0
Change in 460/530 ratio in the indicated clone by the following activator ([1]; clone J83PI7): 2
Change in 460/530 ratio in the indicated clone by the following activator ([1]; clone J83PI8): 4-5
Change in 460/530 ratio in the indicated clone by the following activator ([1]; clone J83PI9): 0
Change in 460/530 ratio in the indicated clone by the following activator ([1]; clone J83PI13): 0
Change in 460/530 ratio in the indicated clone by the following activator ([1]; clone J83PI14): 2
Change in 460/530 ratio in the indicated clone by the following activator ([1]; clone J83PI15): 3
Change in 460/530 ratio in the indicated clone by the following activator ([1]; clone J83PI16): 3-4
Change in 460/530 ratio in the indicated clone by the following activator ([1]; clone J83PI18): 5
Change in 460/530 ratio in the indicated clone by the following activator ([1]; clone J83PI19): 3
Change in 460/530 ratio in the indicated clone by the following activator ([1]; clone J97PI1): 3-4
Change in 460/530 ratio in the indicated clone by the following activator ([1]; clone J97PI3): 1-2
Change in 460/530 ratio in the indicated clone by the following activator ([1]; clone J97PI4): 1-2
Change in 460/530 ratio in the indicated clone by the following activator ([1]; clone J97PI5): 1.5
Change in 460/530 ratio in the indicated clone by the following activator ([1]; clone J97PI6): 1-2
Change in 460/530 ratio in the indicated clone by the following activator ([1]; clone J97PI7): 1-2
Change in 460/530 ratio in the indicated clone by the following activator ([1]; clone J97PI8): 1-2
Change in 460/530 ratio in the indicated clone by the following activator ([1]; clone J97PI9): 1-2
Change in 460/530 ratio in the indicated clone by the following activator ([1]; clone J97PI10): 1-2
Change in 460/530 ratio in the indicated clone by the following activator ([1]; clone J97PI11): 2
Change in 460/530 ratio in the indicated clone by the following activator ([1]; clone J97PI12): 2-3
Change in 460/530 ratio in the indicated clone by the following activator ([1]; clone J97PI13): 1-2
Change in 460/530 ratio in the indicated clone by the following activator ([1]; clone J97PI14): 2
Change in 460/530 ratio in the indicated clone by the following activator ([1]; clone J97PI15): 1-2
Change in 460/530 ratio in the indicated clone by the following activator ([1]; clone J97PI17): 1-2
Change in 460/530 ratio in the indicated clone by the following activator ([1]; clone J97PI18): 1-2
Change in 460/530 ratio in the indicated clone by the following activator ([1]; clone J97PI19): 1-2
Change in 460/530 ratio in the indicated clone by the following activator ([1]; clone J97PI20): 1-2
Change in 460/530 ratio in the indicated clone by the following activator ([1]; clone J97PI21): 1-2
Change in 460/530 ratio in the indicated clone by the following activator ([1]; clone J97PI22): 2-3
Change in 460/530 ratio in the indicated clone by the following activator ([1]; clone J97PI23): 1-2
Change in 460/530 ratio in the indicated clone by the following activator ([1]; clone J97PI24): 2-3
Change in 460/530 ratio in the indicated clone by the following activator ([1]; clone J97PI116): 2-3
Change in 460/530 ratio in the indicated clone by the following activator ([1]; clone J325B5): 2-3
Change in 460/530 ratio in the indicated clone by the following activator ([1]; clone J325B11): 2-3
Change in 460/530 ratio in the indicated clone by the following activator ([1]; clone J325E1): 8
Change in 460/530 ratio in the indicated clone by the following activator ([1]; clone J325E3): 2-3
Change in 460/530 ratio in the indicated clone by the following activator ([1]; clone J325E6): 3-4
Change in 460/530 ratio in the indicated clone by the following activator ([1]; clone J325G4): 3-4
Change in 460/530 ratio in the indicated clone by the following activator ([1]; clone J326C9): 2-3
Change in 460/530 ratio in the indicated clone by the following activator ([1]; clone J326D4): 10
Change in 460/530 ratio in the indicated clone by the following activator ([1]; clone J326D7): 10
Change in 460/530 ratio in the indicated clone by the following activator ([1]; clone J326F7): 10
Change in 460/530 ratio in the indicated clone by the following activator ([1]; clone J326H4): 10
Change in 460/530 ratio in the indicated clone by the following activator ([1]; clone J389PM2): 3-4
Change in 460/530 ratio in the indicated clone by the following activator ([1]; clone J389PM3): 2-3
Change in 460/530 ratio in the indicated clone by the following activator ([1]; clone J389PM5): 3-4
Change in 460/530 ratio in the indicated clone by the following activator ([1]; clone J389PM7): 1-2
Change in 460/530 ratio in the indicated clone by the following activator ([1]; clone J389PM8): 2-3
Change in 460/530 ratio in the indicated clone by the following activator ([1]; clone J389PT4): 12
Change in 460/530 ratio in the indicated clone by the following activator ([1]; clone J389PTt): 8-9
Change in 460/530 ratio in the indicated clone by the following activator ([1]; clone J389TI1): 1-2
Change in 460/530 ratio in the indicated clone by the following activator ([1]; clone J389TI4): 1-2
Relative Beta-Lactamase Activity of the Clone by the Indicated Stimulus After 24 hours (% of maximum activated stimuli) (BLEC Jurkat clones; clone J32-6D4): 60%
Relative Beta-Lactamase Activity of the Clone by the Indicated Stimulus After 24 hours (% of maximum activated stimuli) (BLEC Jurkat clones; clone J83 97-PPTR2 (repressed paradigm)): 100%
Relative Beta-Lactamase Activity of the Clone by the Indicated Stimulus After 24 hours (% of maximum activated stimuli) (BLEC Jurkat clones; clone J83-PI9): <1%
Relative Beta-Lactamase Activity of the Clone by the Indicated Stimulus After 24 hours (% of maximum activated stimuli) (BLEC Jurkat clones; clone J83-PTI8): 80%
Relative Beta-Lactamase Activity of the Clone by the Indicated Stimulus After 24 hours (% of maximum activated stimuli) (BLEC Jurkat clones; clone J389-PTI4): 90%
Relative Beta-Lactamase Activity of the Clone by the Indicated Stimulus After 24 hours (% of maximum activated stimuli) [2]: <1%
